Results from patent US20230242616A1, “CHEMOKINE-SELECTIVE CXCR4 ECTODOMAIN-DERIVED (POLY)PEPTIDE” (Ludwig-Maximilians-Universität München, priority 2020, published 2023).

Tests used:
Apoe−/− mice on HFD = test: Cytokine array on plasma of treated mice; format: in vivo, mouse; details: reductions for IFN-γ, IL-1α, IL-16, TNF-α, CXCL13/BLC
Procedure: Cytokine array. Cytokine/chemokine profiling was performed from plasma samples of msR4M-L1-versus vehicle-treated Apoe^−/− mice using mouse cytokine array panel A (R&D Systems, ARY006) according to the manufacturer's instructions. Plasma samples were diluted (1:10) in array buffer; incubated with antibody detection cocktail for 1 h at RT, exposed to the blocked membranes (overnight, 4° C.), membranes washed and incubated with streptavidin-HRP conjugate working solution (30 min, RT). Membranes were developed with Chemi-Reagent Mix and analyzed by Odyssey® Fc imager. The average signal (pixel density) of duplicate spots was quantified by ImageJ.

human monocytes [1] = test: 3D migration of monocytes elicited by CXCL12; format: cell-based; details: 5-fold molar excess
Excerpt: (§1) Isolation of human peripheral blood-derived monocytes. Human peripheral blood-derived monocytes were isolated as described^14. Briefly, blood was collected from healthy donors or buffy coat obtained from the blood bank of Munich University Hospital, mixed 1:1 with PBS, and PBMCs isolated by Ficoll-Paque Plus gradient (GE Healthcare). Monocytes were purified by negative depletion using the Monocyte Isolation Kit II (Miltenyi). Monocyte purity was verified by flow cytometry using an anti-CD14 antibody (Miltenyl) and was 95-98%. […] The isolation of PBMCs from donor blood was approved by the local ethics committee of LMU Munich. 3D migration of human peripheral blood-derived monocytes by time-lapse microscopy. The 3D-migration behavior of human monocytes was assessed by time-lapse microscopy and individual cell tracking using the 3D chemotaxis μ-Slide system from Ibidi GmbH (Munich, Germany), adapting the established Ibidi dendritic cell protocol for human monocytes. […] Cell motility was monitored performing time-lapse imaging every 1 min at 37° C. for 2 h using a Leica inverted DMi8-Life Cell Imaging System equipped with a DMC2900 Digital Microscope Camera with CMOS sensor and live cell-imaging software (Leica Microsystems, Wetzlar, Germany). Images were imported as stacks to ImageJ software and analyzed with the manual tracking and chemotaxis/migration tools (Ibidi GmbH).

[2] = molecular target: T1, human CXCR4 (CXCL12/CXCR4) (Homo sapiens, UniProt P48061); test: CXCR4-specific signaling in yeast (lacZ reporter), CXCL12-triggered; format: cell-based; details: 2 μM CXCL12
T1 construct: expressed in transfected cells; host or cells: S. cerevisiae strain CY12946
T1 sequence (P48061 22-89 limits assumed): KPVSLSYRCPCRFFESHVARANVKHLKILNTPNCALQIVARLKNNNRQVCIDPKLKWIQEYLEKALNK
Procedure: CXCR4-specific signaling in a yeast-based cell system. […] Briefly, yeast transformants stably expressing human CXCR4 were grown overnight at 30° C. in yeast nitrogen base selective medium (Formedium, UK). Cells were diluted to an OD600 of 0.2 and grown to an OD600 of 0.3-0.6. […] OD600 was measured and activation of CXCR4 signaling quantified by β-galactosidase activity using a commercial BetaGlo Kit (Promega, Mannheim, Germany).

human monocytes [3] = test: 3D migration of monocytes elicited by MIF (time-lapse microscopy); format: cell-based
Excerpt: as §1

[4] = tested on: carotid arteries of Apoe−/− mice; test: Leukocyte adhesion in atherogenic carotid arteries ex vivo under flow; design: species or system mouse; details: injection three days before vessel preparation; physiological flow
Procedure: Fluos-msR4M-L1 staining and monocyte adhesion in atherosclerotic carotid arteries by multiphoton microscopy. Monocyte adhesion experiments in atherosclerotic carotid arteries under physiological flow conditions ex vivo have been established^14, 70. Seven-week-old Apoe^−/− mice were fed a Western-type HFD (0.2% cholesterol) for 12 weeks. […] On day 3, arteries were prepared and mounted into an arteriograph chamber as described^70. […] Mouse leukocytes isolated from the bone marrow of msR4M-L1- or vehicle-treated atherogenic Apoe^−/− mice were stained with fluorescent Green CMFDA or Red CMPTX (Thermo Fisher Scientific). […] The red- and green-stained cell pools were mixed at a 1:1 ratio and 3×10^6 cells in 6 mL perfused into the artery of msR4M-L1- or vehicle-treated mice, respectively. Arteries were scanned by MPM using a multispectral TCS SP8 DIVE instrument with filter-free 4TUNE NDD detection module (Leica) and the number of adherent and transmigrated leukocytes determined by scanning multi-photon excitation. Vessel structure (and plaques) were visualized by second harmonic generation (SHG).

[5] = tested on: human cardiomyocytes (HCM), pAMPK; test: MIF-triggered AMPK signaling in cardiomyocytes (MIF/CD74); format: cell-based; details: 16 nM MIF; 1- and 5-fold excess
Procedure: CD74 signaling in human cardiomyocytes. Before stimulation, medium was replaced by fresh myocyte basal medium containing 0.05% FCS and HCMs rested for 16 h. Surface CD74 expression on HCMs was verified by flow cytometry (FITC-conjugated anti-human CD74, FITC-IgG2 (isotype control) (BD Pharmingen), 1 h/4° C. in the dark, BD FACSVerse™ flow cytometer, FlowJo software). […] After treatment, cells were lysed and subjected to SDS-PAGE/Western blotting. […] Anti-rabbit horseradish peroxidase (HRP)-conjugated antibody (1:10000, GE Healthcare, Freiburg, Germany) was used for development and signals quantitated by chemiluminescence using an Odyssey® Fc imager.

[6] = Blood cell counts, lipid levels and body weight of treated mice; format: in vivo, mouse
Excerpt: Blood cell counts, triglycerides and cholesterol levels. […] APC-conjugated anti-CD19, FITC-conjugated anti-CD3.

[7] = tested on: primary human monocyte-derived macrophages; test: Dil-LDL uptake / foam cell formation, MIF-mediated; format: cell-based
Procedure: Dil-LDL uptake/foam cell formation. […] After washing with imaging solution (MEM without phenol red containing 30 mM HEPES, 0.5 g/L NaHCO3, pH 7.4, and 0.2% BSA), cells were exposed to 50 μg/mL 1,1′-dioctadecyl-3,3,3′3′-tetra-methylindocarbocyanine-labeled LDL (Dil-LDL) for 30 min at 4° C. followed by incubation at 37° C. for 20 min. Cells were washed with ice-cold imaging solution (pH 3.5), fixed, and counter-stained with Hoechst 33258.

[8] = tested on: human monocyte-derived macrophages; details: read-out: IC50 of MIF-triggered Dil-oxLDL uptake; lower threshold of effect size roughly 50%

CC[C@H](C)[C@H](NC(=O)[C@H](Cc1ccc(O)cc1)NC(=O)[C@H](CCCNC(=N)N)NC(=O)[C@H](CC(=O)O)NC(=O)CCCCCCCCCCCNC(=O)CCCCCNC(=O)[C@H](CCCCN)NC(=O)[C@H](CS)NC(=O)[C@H](CC(C)C)NC(=O)[C@H](Cc1ccccc1)NC(=O)[C@H](CC(N)=O)NC(=O)CNC(=O)[C@H](Cc1ccccc1)NC(=O)[C@H](Cc1ccc(O)cc1)NC(=O)[C@H](Cc1c[nH]c2ccccc12)NC(=O)[C@H](CC(N)=O)NC(=O)[C@H](C)NC(=O)[C@@H](NC(=O)[C@H](C)NC(=O)[C@@H](N)CC(=O)O)C(C)C)C(=O)N[C@@H](CS)C(=O)N[C@@H](CC(=O)O)C(=O)N[C@@H](CCCNC(=N)N)C(=O)N[C@@H](Cc1ccccc1)C(=O)N[C@@H](Cc1ccc(O)cc1)C(=O)N1CCC[C@H]1C(=O)N[C@@H](CC(N)=O)C(=O)N[C@@H](CC(=O)O)C(=O)N[C@@H](CC(C)C)C(=O)N[C@@H](Cc1c[nH]c2ccccc12)C(=O)N[C@H](C(N)=O)C(C)C [msR4M-L1]
circulating inflammatory cytokine levels (Apoe−/− mice on HFD): marked reduction | effect on CXCL12-induced cell motility (human monocytes [1]): remained unaffected | effect on CXCL12/CXCR4-elicited signaling [2]: remained unaffected | effect on MIF-triggered 3D monocyte migration (human monocytes [3]): dose-dependently attenuated | molar excess that ablates the pro-migratory effect of MIF (human monocytes [3]): 2 -fold molar excess | number of adhering leukocytes [4]: significantly reduced the number of adhering leukocytes | effect on MIF-upregulated pAMPK levels [5]: not attenuated | Leukocytes ([6]; Apoe−/− mice, HFD 4.5 weeks): 4632 ± 286 per μL | Lymphocytes ([6]; Apoe−/− mice, HFD 4.5 weeks): 2347 ± 50 per μL | Monocytes ([6]; Apoe−/− mice, HFD 4.5 weeks): 552 ± 51 per μL | Neutrophils ([6]; Apoe−/− mice, HFD 4.5 weeks): 1897 ± 46 per μL | Triglycerides ([6]; Apoe−/− mice, HFD 4.5 weeks): 156.7 ± 3.8 mg/dL | Weight ([6]; Apoe−/− mice, HFD 4.5 weeks): 22.3 ± 0.2 g | Cholesterol ([6]; Apoe−/− mice, HFD 4.5 weeks, means ± SD): 647.4 ± 19.2 mg/dL | effect on body weight, plasma total cholesterol, triglyceride levels, blood leukocyte counts ([6]; mouse, in vivo): did not observe any effect | effect on MIF-mediated Dil-LDL uptake ([7]; 80 nM MIF): dose-dependently inhibited | inhibitory capacity compared with established MIF inhibitors ([7]; Dil-LDL uptake): slightly better than that of ISO-1, but lower than that or NIH/IIID.9 | IC50 [8]: ~100 nM
